Usually MIC stands for the lowest concentration found to suppress growth. Lower therefore signals a more susceptible organism. A word on the IC50: it is the concentration needed to halve the response being measured. A high value points to weaker potency.

The structures appear in SMILES notation. In brackets after ≈: the same amount, converted by molar mass.

The first assay relates to Staphylococcus aureus. Kind of assay: Antimicrobial activity against methicillin-resistant Staphylococcus aureus after 20 hrs. The format is functional.
`CC1=CC(=O)c2c(C)cc3oc(=O)c(C)c-3cc21` gave an MIC of 1.95 µg/mL (≈ 8.12 µM).

In a further assay the test system is HCT-116. As to the kind of experiment: Cytotoxicity against human HCT116 cells by MTT assay. It is filed as functional, cell-based.
Turning to `C=C1C(=O)O[C@H]([C@H]2C(=O)C=C[C@@]2(C)O)[C@H]1CCC(C)=O`, the IC50 came to 6 µM.

For `CC1=CC(=O)c2c(C)cc3oc(=O)c(C)c-3cc21`, the IC50 is 16 µM.

Consider `C=C1C(=O)O[C@H]2[C@H]1CC[C@@](C)(O)[C@]13O[C@H]1[C@H]1O[C@@]1(C)[C@H]23` [ARTECANIN], for which half-maximal inhibition (IC50) required 14 µM.

`C=C1C(=O)O[C@H](C2=C(C)[C@@H](O)CC2=O)[C@H]1CCC(C)=O` [ISOSECOTANAPARTHOLIDE]: the IC50 came out at 13 µM.

The compound `C=C1C(=O)O[C@H]([C@@H]2C(=O)C=C[C@@]2(C)O)[C@H]1CCC(C)=O` [SECOTANAPARTHOLIDE A] registered an IC50 of 6 µM. Against the preceding compound, the IC50 is about 2.2-fold lower.

Consider `C=C1C(=O)O[C@H]([C@@H]2C(=O)C=C[C@]2(C)O)[C@H]1CCC(C)=O` [SECOTANAPARTHOLIDE B], for which it took 3.3 µM to reach half-maximal inhibition (IC50).

The record behind these values is ChEMBL document CHEMBL1159365, “Sesquiterpenoids from Artemisia gilvescens and an anti-MRSA compound” (J Nat Prod, 2003).
